Reference: patent US4713247A, “Long-acting formulation of cefaclor” (priority 1983, dated 1987)
Converted amounts (≈) assume the structure as drawn. “Also recorded” adds a separate entry of the source. Where two headings read alike, the source gives them in different places.

Experiments:
[1] = test system: Escherichia coli NIH JC-2; experiment: Minimum inhibitory concentration, Escherichia coli NIH JC-2 (Table 1); type: cell-based; details: NIHJC2, dilution method, Chemotherapy 29(1), 76-79 (1981)
Description: (§1) Minimum Inhibitory Concentrations (MICs) were assayed according to the
(§2) dilution method disclosed in Chemotherapy 29(1), 76-79 (1981).

[2] = test system: Staphylococcus aureus No. 6; experiment: Susceptibility (MIC), Staphylococcus aureus No. 6 (Table 3); type: cell-based
Description: (§3) 1.56 μg/ml: The value was determined by the above-identified method, where Muller-Hinton agar (Difco) as the medium was employed. Method 1.
(§4) The same procedures as in Experiment 3. were applied to the following strains. The following MIC values were also determined according to the same method as in Experiment 3.
(§5) The values with *^1 or *^2 were determined by the method 1 or 2
(§6) disclosed in Experiment 3, respectively.

[3] = test system: Escherichia coli NIH JC2 or Escherichia coli No. 29; experiment: Time and concentration required for 99% sterilization, both strains together (Experiment 2); type: cell-based; details: in words
Description: Additionally, the bactericidal effects of CCL were compared with those of CEX through the following in vitro tests (details of the tests are described afterwards). The concentrations of CCL or CEX and the time which are needed for diminishing 99% of the inoculum size were measured (FIG. 2, Table 2).
Heart infusion broth (Nissui Pharmaceutical Co.)
The test microorganisms at the logarithmic growth phase (about 10^6 CFU/ml) were spread into the aforementioned broth placed in tubes, to which CCL or CEX was applied at prefixed serial concentrations. Changing in the number of viable microorganisms was monitored in order to measure the time required for 99% sterilization of the inoculum size in each tube.

Escherichia coli No. 29 = experiment: Minimum inhibitory concentration, Escherichia coli No. 29 (Table 1); type: cell-based; details: dilution method, Chemotherapy 29(1), 76-79 (1981)
Description: as §1, §2

[4] = test system: Staphylococcus aureus No. 1021; experiment: Susceptibility (MIC), Staphylococcus aureus No. 1021 (Table 3); type: cell-based
Description: as §3, §4, §5, §6

Escherichia coli ES-80 = experiment: Susceptibility (MIC), Escherichia coli ES-80 (Table 3); type: cell-based
Description: as §3, §4, §5, §6

[5] = clinical use; cited from earlier work
Escherichia coli ES-68 = experiment: Susceptibility (MIC), Escherichia coli ES-68 (Table 3); type: cell-based
Description: as §3, §4, §5, §6

Escherichia coli ES-69 = experiment: Susceptibility (MIC), Escherichia coli ES-69 (Table 3); type: cell-based
Description: as §3, §4, §5, §6

[6] = design: species or system healthy and adult men (volunteers); details: human, in vivo, po
Description: 250 mg Capsules of Keflex® (Shionogi & Co., (LTD-Lilly) as CEX and 250 mg capsules of Kefral® (Shionogi & Co., LTD-Lilly) as CCL were employed.
The subjects, 12 healthy and adult men aged 21 to 39 years with 1.58 to 1.83 m^2 in the body surface area.
To each subject after fasting, who had no meal after supper of the previous day, were given orally the capsules with 100 ml of warm water, and the fasting was continued for 2 hours, except giving them a prefixed amount of water. CEX and CCL were given to the 12 subjects in a cross-over method, and any drugs other than CEX or CCL were not applied for one week.
The blood was collected 8 times, just before the administration, after 0.5, 0.75, 1, 1.5, 2, 3 and 6 hours. The plasma was centrifugally separated under cooling immediately after each collection, rapidly frozen and then preserved at -20° C. until the time of measurement.
The measurement were made within a week after the collection. After the frozen samples were allowed to melt at 4° C., a series of ten-fold dilution was prepared with 0.1M of phosphate buffer (pH 6.0), on which the blood level was measured by a band culture method using Micrococcus luteus ATCC 9341 as standard. Antibiotic Medium No. 8 (Difco; hereinafter referred to as ABM 8) was employed as a medium.

[7] = test system: Staphylococcus aureus No. 1037; experiment: Susceptibility (MIC) of Staphylococcus aureus No. 1037; type: cell-based
Description: (2)Susceptibility of the test miocroorganisms (MIC value):
as §3

[8] = relative to CEX; cited from earlier work

Structure (SMILES)	MIC [1] [µg/mL]	MIC ([2]; NO.6, 10^5 CFU/ml, Method 2) [µg/mL]	MIC ([2]; NO.6, 10^6 CFU/ml, Method 1) [µg/mL]	time required for 99% sterilization compared with CEX ([3]; relative to CEX, monohydrate)	MIC (Escherichia coli No. 29) [µg/mL]	MIC ([4]; NO.1021, 10^5 CFU/ml, Method 2) [µg/mL]	MIC ([4]; NO.1021, 10^6 CFU/ml, Method 1) [µg/mL]	MIC (Escherichia coli ES-80; ES80, 10^5 CFU/ml, Method 2) [µg/mL]	MIC (Escherichia coli ES-80; ES80, 10^6 CFU/ml, Method 1) [µg/mL]	clinical effectiveness [5]	MIC (Escherichia coli ES-68; ES68, 10^5 CFU/ml, Method 2) [µg/mL]	MIC (Escherichia coli ES-68; ES68, 10^6 CFU/ml, Method 1) [µg/mL]	MIC (Escherichia coli ES-69; 10^5 CFU/ml, Method 2) [µg/mL]	MIC (Escherichia coli ES-69; Escherichia coli, ES69, 10^6 CFU/ml, Method 1, read-out: MIC) [µg/mL]	half-life compared with CEX [6]	MIC ([7]; NO.1037, Method 1, Muller-Hinton agar) [µg/mL]	MIC ([7]; NO.1037, Method 2, ABM 3 broth, 18 to 20 hours after inoculation (10^5 CFU/ml)) [µg/mL]	antimicrobial spectrum compared with CEX [8]	bactericidal action compared with CEX [8]	concentration needed for diminishing 99% of the inoculum size ([3]; multiples of MIC)
N[C@@H](C(=O)N[C@@H]1C(=O)N2C(C(=O)O)=C(Cl)CS[C@H]12)c1ccccc1 [CCL, 3-chloro-7-D-(2-phenylglycinamido)-3-cephem-4-carboxylic acid monohydrate]	3.13	6.25	3.13	within a shorter period of time than CEX; also recorded: much shorter at any MIC of 1/2 to about 64 than for CEX	1.56	3.13	1.56	3.13	1.56	highly effective in clinical use	3.13	1.56	3.13	3.13	half-life shorter	1.56	3.13	broader spectrum	more potent bactericidal action than CEX	
CC1=C(C(=O)O)N2C(=O)[C@@H](NC(=O)[C@H](N)c3ccccc3)[C@H]2SC1 [CEX]	6.25 (≈ 18 µM)				3.13 (≈ 9.01 µM)															at least one MIC; also recorded: one or more MICs
